# Results published in publication PMC9007462 (Journal of Medicinal Chemistry, 2022).
# Legend:
# Human ALDH1A1 [1] = target: T1, Human ALDH1A1 (Homo sapiens, UniProt P00352); test: Inhibition screening, single point at 10 μM, ALDH1A1; type: biochemical; details: 10 μM compound; 5 μM hexanal (Figure S1)
# T1 construct: made in house
# T1 sequence (P00352 1-501): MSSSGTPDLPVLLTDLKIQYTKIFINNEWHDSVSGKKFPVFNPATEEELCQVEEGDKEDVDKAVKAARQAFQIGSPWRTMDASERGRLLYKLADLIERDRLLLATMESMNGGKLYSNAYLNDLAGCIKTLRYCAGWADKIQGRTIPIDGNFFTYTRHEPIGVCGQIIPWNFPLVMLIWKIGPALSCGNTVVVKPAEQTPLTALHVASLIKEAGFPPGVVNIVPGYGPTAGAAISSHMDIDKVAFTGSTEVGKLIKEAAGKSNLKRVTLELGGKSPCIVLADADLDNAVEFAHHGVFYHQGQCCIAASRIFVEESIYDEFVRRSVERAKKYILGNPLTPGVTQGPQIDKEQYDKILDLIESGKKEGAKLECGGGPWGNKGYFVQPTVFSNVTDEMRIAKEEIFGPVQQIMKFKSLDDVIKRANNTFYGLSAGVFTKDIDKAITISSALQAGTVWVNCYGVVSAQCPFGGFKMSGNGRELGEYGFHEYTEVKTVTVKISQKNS
# Procedure: (§1) Human ALDH1A1, ALDH1A3, and ALDH3A1 were cloned and recombinantly expressed from the pET-30 Xa/LIC vector. Protein purification was achieved by affinity chromatography on a nickel-charged chelating Sepharose Fast Flow 5-mL column (His Trap column, Cytiva), which specifically binds the protein due to its N-terminal (His)6 tag, using an ÄKTA FPLC system (Cytiva), as previously described.[55] Enzymes including the His tag were stored at −80 °C in 20 mM Tris/HCl and 0.5 M NaCl, pH 8.0, until use. Reaction buffers were as follows: ALDH1A1 was assayed in 50 mM HEPES, 0.5 mM EDTA, and 0.5 mM DTT, pH 8.0; ALDH1A3 was assayed in 50 mM HEPES, 30 mM MgCl2, and 5 mM DTT, pH 8.0; and ALDH3A1 was assayed in 50 mM Tris–HCl and 5 mM DTT, pH 8.0. Activity under standard conditions was measured fluorimetrically at 25 °C using a Cary Eclipse (Varian) fluorimeter to follow the purification procedure and to check the enzyme concentration before each kinetic experiment. The fluorescence of NADH was characterized at 460 nm with excitation at 340 nm, and 5 μM NAD(P)H was added as an internal standard to obtain the absolute reaction rates.[55] Standard activity was measured at saturating concentrations of substrate using 30 μM hexanal (ALDH1A1), 250 μM hexanal (ALDH1A3), or 250 μM 4-NBA (ALDH3A1). NAD^+ was 500 μM for ALDH1A1 and ALDH1A3, and NADP^+ was 1 mM for ALDH3A1.
# All compounds tested were dissolved in DMSO and assayed at a final concentration of 1% (v/v) DMSO. […] For the initial screening, the enzymatic activity was measured in 96-well plates (final volume of 200 μL) in a Victor 3 Multilabel Plate Reader (Perkin Elmer), by monitoring the fluorescence of the NAD(P)H produced during the reaction (excitation at 340 nm and emission at 460 nm). Alternatively, the enzymatic activity was measured in a Varian Cary 400 UV–vis spectrophotometer, by monitoring the increase in the absorbance of NAD(P)H at 340 nm (ε = 6.22 mM^–1·cm^–1) or in a Cary Eclipse Varian fluorimeter, as described above. […] For ALDH1A1, 5 μM hexanal (Sigma) was used. For ALDH1A3, 10 and 250 μM hexanal (Sigma) were used. For ALDH3A1, 4-NBA (Sigma) was used at 31 and 250 μM. All substrates were prepared in the corresponding assay buffer at a concentration of 2 mM and further diluted to reach the final concentrations required per experiment. The concentration of the enzyme was kept from 50- to 100-fold lower than that of the substrate for all enzymatic assays.
# DU145 = test: MTT chemosensitivity assay, DU145; type: cell-based, human; details: Homo sapiens, DU-145, 96 h exposure, ± SD, at least three independent experiments
# Procedure: (§2) MTT (3-(4, 5-dimethyl-2-thiazolyl)-2, 5-diphenyl-2H-tetrazolium bromide) assay was used to determine cell viability.[64] Immortalized PCa cells (PC-3, Du-145, and LNCaP) were seeded in 96-well plates and allowed to adhere overnight at 37 °C, 5% CO2, and 100% humidity. […] After 96 h of exposure, 200 μL of MTT (Sigma) solution (0.5 mg/mL) was added to each well and incubated at 37 °C for 4 h. The formazan crystals were dissolved in DMSO (Sigma), and the absorbance was read using a microplate reader (Multiskan EX; Thermo Fisher Scientific) at 540 nm. Data analysis was performed using Microsoft Excel 2013 and GraphPad Prism software.
# PC3 = test: MTT chemosensitivity assay, PC3; type: cell-based, human; details: Homo sapiens, PC-3, 96 h exposure, ± SD, at least three independent experiments
# Procedure: as §2
# LNCaP = test: MTT chemosensitivity assay, LNCaP; type: cell-based, human; details: Homo sapiens, LNCaP, 96 h exposure, ± SD, at least three independent experiments
# Procedure: as §2
# Human ALDH1A1 [2] = target: T1, Human ALDH1A1; test: ALDH1A1 inhibition, IC50 determination; type: biochemical; details: 5 μM hexanal as substrate; mean ± SE
# Procedure: as §1
# (§3) In order to determine the IC50 values, reaction rates were determined at various concentrations of inhibitor at a fixed concentration of substrate. As substrates for ALDH1A1, ALDH1A3, and ALDH3A1, 5 μM hexanal, 6 μM hexanal, and 31 μM 4-NBA, respectively, were used. The IC50 values were calculated by nonlinear fitting of the obtained data to a sigmoidal plot using GraFit 5.0 (Erithacus software), with the following 4-parameter equation [drawing 2] , where y is the specific activity, x is the inhibitor concentration, background is the minimum y value, range is the fitted uninhibited value minus the background, and s is the slope factor. Values are expressed as the mean ± SE.
# Human ALDH1A3 [3] = target: T2, Human ALDH1A3 (Homo sapiens, UniProt P47895); test: ALDH1A3 inhibition, IC50, Ki and type of inhibition; type: biochemical; details: 6 μM hexanal as substrate; mean ± SE
# T2 construct: made in house
# T2 sequence (P47895 1-512): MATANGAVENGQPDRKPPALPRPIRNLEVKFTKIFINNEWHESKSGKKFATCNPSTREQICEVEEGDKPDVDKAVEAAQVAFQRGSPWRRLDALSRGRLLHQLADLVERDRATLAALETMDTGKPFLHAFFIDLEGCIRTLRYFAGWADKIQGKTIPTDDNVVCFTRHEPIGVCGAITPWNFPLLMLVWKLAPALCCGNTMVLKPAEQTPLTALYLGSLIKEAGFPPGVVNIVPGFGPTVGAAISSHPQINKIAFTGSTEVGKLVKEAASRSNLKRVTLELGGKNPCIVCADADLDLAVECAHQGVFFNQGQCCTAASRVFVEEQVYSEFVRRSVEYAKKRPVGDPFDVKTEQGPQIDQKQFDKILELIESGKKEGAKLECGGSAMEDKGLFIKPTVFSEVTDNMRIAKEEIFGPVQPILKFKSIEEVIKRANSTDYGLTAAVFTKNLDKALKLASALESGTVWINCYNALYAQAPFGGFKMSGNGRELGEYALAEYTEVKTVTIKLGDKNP
# Procedure: Human ALDH1A1, ALDH1A3, and ALDH3A1 were cloned and recombinantly expressed from the pET-30 Xa/LIC vector. Protein purification was achieved by affinity chromatography on a nickel-charged chelating Sepharose Fast Flow 5-mL column (His Trap column, Cytiva), which specifically binds the protein due to its N-terminal (His)6 tag, using an ÄKTA FPLC system (Cytiva), as previously described.[55] Enzymes including the His tag were stored at −80 °C in 20 mM Tris/HCl and 0.5 M NaCl, pH 8.0, until use. Reaction buffers were as follows: ALDH1A1 was assayed in 50 mM HEPES, 0.5 mM EDTA, and 0.5 mM DTT, pH 8.0; […] Activity under standard conditions was measured fluorimetrically at 25 °C using a Cary Eclipse (Varian) fluorimeter to follow the purification procedure and to check the enzyme concentration before each kinetic experiment. […] In order to determine the IC50 values, reaction rates were determined at various concentrations of inhibitor at a fixed concentration of substrate. […] Values are expressed as the mean ± SE. […] The data of enzymatic activities at different inhibitor concentrations were fitted to the Michaelis–Menten equation to determine the values of Km and Vmax. Next, results were fitted to the equations for competitive, given by [drawing 3]; noncompetitive, given by [drawing 4]; uncompetitive, given by [drawing 5]; and mixed, given by [drawing 6] .[56] The type of inhibition was selected based on the lowest error value. Parameters were expressed as the mean ± SE.
# Human ALDH1A3 [4] = target: T2, Human ALDH1A3; test: Inhibition screening, single point at 10 μM, ALDH1A3; type: biochemical; details: 10 μM compound; hexanal as substrate (Figure S1)
# Procedure: as §1, with “Reaction buffers were as follows: ALDH1A1 was assayed in 50 mM HEPES, 0.5 mM EDTA, and 0.5 mM DTT, pH 8.0; ALDH1A3 was assayed in 50 mM HEPES, 30 mM MgCl2, and 5 mM DTT, pH 8.0; and ALDH3A1 was assayed in 50 mM Tris–HCl and 5 mM DTT, pH 8.0.” left out, “NAD^+ was 500 μM for ALDH1A1 and ALDH1A3, and NADP^+ was 1 mM for ALDH3A1.” left out
# All compounds tested were dissolved in DMSO and assayed at a final concentration of 1% (v/v) DMSO. […] Alternatively, the enzymatic activity was measured in a Varian Cary 400 UV–vis spectrophotometer, by monitoring the increase in the absorbance of NAD(P)H at 340 nm (ε = 6.22 mM^–1·cm^–1) or in a Cary Eclipse Varian fluorimeter, as described above. […]
# Human ALDH1A1 [5] = target: T1, Human ALDH1A1; test: DEAB analogues as substrates of ALDH1A1; type: biochemical; details: 10 μM compound as substrate, relative to activity with 10 μM hexanal (Figure S2)
# Procedure: as §1
# According to their structure with a carbonyl group, compounds were tested for their substrate properties against ALDH1A1, ALDH1A3, and ALDH3A1. […] Results are expressed as the percentage of activity at 10 μM versus the activity at 10 μM of their standard substrate (hexanal or 4-NBA). Values are expressed as the mean ± SE.
# Human ALDH3A1 = target: T3, Human ALDH3A1 (Homo sapiens, UniProt P30838); test: ALDH3A1 inhibition, IC50, Ki and type of inhibition; type: biochemical
# T3 construct: made in house
# T3 sequence (P30838 1-453): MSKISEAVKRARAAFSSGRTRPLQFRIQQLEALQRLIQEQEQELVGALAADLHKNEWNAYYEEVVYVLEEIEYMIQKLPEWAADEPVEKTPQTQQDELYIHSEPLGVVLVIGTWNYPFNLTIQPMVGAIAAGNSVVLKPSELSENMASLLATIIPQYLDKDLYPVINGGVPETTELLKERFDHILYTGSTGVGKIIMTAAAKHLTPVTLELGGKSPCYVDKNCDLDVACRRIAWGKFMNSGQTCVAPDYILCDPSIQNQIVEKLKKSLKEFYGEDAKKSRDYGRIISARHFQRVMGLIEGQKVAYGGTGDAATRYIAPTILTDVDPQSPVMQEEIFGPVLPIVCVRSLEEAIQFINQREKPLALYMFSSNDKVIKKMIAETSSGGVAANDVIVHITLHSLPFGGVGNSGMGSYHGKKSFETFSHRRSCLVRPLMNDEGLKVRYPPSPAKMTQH
# Procedure: as §1, §3
# Activity assays to determine the type of inhibition and Ki value were performed using various substrate and inhibitor concentrations maintaining the same conditions as for the IC50 experiments and using GraFit 5.0 for data processing. The data of enzymatic activities at different inhibitor concentrations were fitted to the Michaelis–Menten equation to determine the values of Km and Vmax. Next, results were fitted to the equations for competitive, given by [drawing 3]; noncompetitive, given by [drawing 4]; uncompetitive, given by [drawing 5]; and mixed, given by [drawing 6] .[56] The type of inhibition was selected based on the lowest error value. Parameters were expressed as the mean ± SE.
SMILES,remaining ALDH1A1 activity (Human ALDH1A1 [1]),IC50 (DU145),IC50 (PC3),IC50 (LNCaP),IC50 (Human ALDH1A1 [2]),IC50 (Human ALDH1A3 [3]),remaining ALDH1A3 activity (Human ALDH1A3 [4]),ALDH1A1 substrate activity (Human ALDH1A1 [5]),"IC50 (Human ALDH3A1; 31 μM 4-NBA as substrate, mean ± SE)",type of inhibition ALDH3A1 (Human ALDH3A1; 4-NBA as substrate),"Ki (Human ALDH3A1; 4-NBA as substrate, fit to competitive inhibition equation, mean ± SE)"
"COc1cc(C=O)ccc1N1CCCC1 [Compound 29, 3-Methoxy-4-(pyrrolidin-1-yl)benzaldehyde]",,,,,0.88 ± 0.05 µM,4.86 ± 0.81 µM,,,,,
"Cc1cc(C=O)ccc1N1CCOCC1 [Compound 27, 3-Methyl-4-morpholinobenzaldehyde]",,,,,,,10%,,,,
"O=Cc1ccc(N2CCCC2)c(Cl)c1 [Compound 12, 3-Chloro-4-(pyrrolidin-1-yl)benzaldehyde]",17%,,,,,0.31 ± 0.03 µM,,,,,
"Cc1cc(C=O)ccc1N1CCCC1 [Compound 26, 3-Methyl-4-(pyrrolidin-1-yl)benzaldehyde]",,> 200 µM,> 200 µM,172 ± 8 µM,0.8 ± 0.16 µM,1.15 ± 0.15 µM,,,,,

# More lines, now with the values ahead:
remaining ALDH1A1 activity (Human ALDH1A1 [1]),IC50 (DU145),IC50 (PC3),IC50 (LNCaP),IC50 (Human ALDH1A1 [2]),IC50 (Human ALDH1A3 [3]),remaining ALDH1A3 activity (Human ALDH1A3 [4]),ALDH1A1 substrate activity (Human ALDH1A1 [5]),"IC50 (Human ALDH3A1; 31 μM 4-NBA as substrate, mean ± SE)",type of inhibition ALDH3A1 (Human ALDH3A1; 4-NBA as substrate),"Ki (Human ALDH3A1; 4-NBA as substrate, fit to competitive inhibition equation, mean ± SE)",SMILES
12%,190 ± 25 µM,> 200 µM,73 ± 14 µM,,,,,,,,"CCCN(CCC)c1ccc(C=O)cc1 [Compound 1, 4-(Dipropylamino)benzaldehyde]"
24%,123 ± 12 µM,166 ± 41 µM,47 ± 0.6 µM,,10.7 ± 1.3 µM,,~60%,,,,"CCN(CC)c1ccc(C=O)cc1Br [Compound 13, 3-Bromo-4-(diethylamino)benzaldehyde]"
,> 200 µM,> 200 µM,136 ± 13 µM,,,,69%,1.29 ± 0.15 µM,competitive,0.24 ± 0.04 µM,"CCN(CC)c1ccc(C=O)cc1[N+](=O)[O-] [Compound 19, 4-(Diethylamino)-3-Nitrobenzaldehyde]"
